Data: US6828462B2, “Unsaturated 1-amino-alkylcyclohexane NMDA, 5HT3, and neuronal nicotinic receptor antagonists” (Merz Pharma GmbH & Co. KGAA, priority 2001, dated 2004)

Columns and labels:
NMDA receptors = target: T1, NMDA receptors (Rattus norvegicus, UniProt P35439); assay: Patch clamp, NMDA-induced currents in hippocampal neurones; assay type: cell-based
T1 construct: Patch clamp recordings were made from these neurones; endogenous in cells; host or cells: primary cultured hippocampal neurones from rat embryos (E20 to E21)

NR1a/2A receptors = target: T2, NR1a/2A receptors (Homo sapiens, UniProt Q05586+Q12879); assay: NMDA receptor blockade in Xenopus oocytes, two-electrode voltage clamp; assay type: cell-based; settings: Xenopus oocytes expressing NR1a/2A
T2 construct: expressed in transfected cells; host or cells: Xenopus laevis oocytes injected with subunit RNA
T2 sequence (Q12879 23-1464, other chains not shown): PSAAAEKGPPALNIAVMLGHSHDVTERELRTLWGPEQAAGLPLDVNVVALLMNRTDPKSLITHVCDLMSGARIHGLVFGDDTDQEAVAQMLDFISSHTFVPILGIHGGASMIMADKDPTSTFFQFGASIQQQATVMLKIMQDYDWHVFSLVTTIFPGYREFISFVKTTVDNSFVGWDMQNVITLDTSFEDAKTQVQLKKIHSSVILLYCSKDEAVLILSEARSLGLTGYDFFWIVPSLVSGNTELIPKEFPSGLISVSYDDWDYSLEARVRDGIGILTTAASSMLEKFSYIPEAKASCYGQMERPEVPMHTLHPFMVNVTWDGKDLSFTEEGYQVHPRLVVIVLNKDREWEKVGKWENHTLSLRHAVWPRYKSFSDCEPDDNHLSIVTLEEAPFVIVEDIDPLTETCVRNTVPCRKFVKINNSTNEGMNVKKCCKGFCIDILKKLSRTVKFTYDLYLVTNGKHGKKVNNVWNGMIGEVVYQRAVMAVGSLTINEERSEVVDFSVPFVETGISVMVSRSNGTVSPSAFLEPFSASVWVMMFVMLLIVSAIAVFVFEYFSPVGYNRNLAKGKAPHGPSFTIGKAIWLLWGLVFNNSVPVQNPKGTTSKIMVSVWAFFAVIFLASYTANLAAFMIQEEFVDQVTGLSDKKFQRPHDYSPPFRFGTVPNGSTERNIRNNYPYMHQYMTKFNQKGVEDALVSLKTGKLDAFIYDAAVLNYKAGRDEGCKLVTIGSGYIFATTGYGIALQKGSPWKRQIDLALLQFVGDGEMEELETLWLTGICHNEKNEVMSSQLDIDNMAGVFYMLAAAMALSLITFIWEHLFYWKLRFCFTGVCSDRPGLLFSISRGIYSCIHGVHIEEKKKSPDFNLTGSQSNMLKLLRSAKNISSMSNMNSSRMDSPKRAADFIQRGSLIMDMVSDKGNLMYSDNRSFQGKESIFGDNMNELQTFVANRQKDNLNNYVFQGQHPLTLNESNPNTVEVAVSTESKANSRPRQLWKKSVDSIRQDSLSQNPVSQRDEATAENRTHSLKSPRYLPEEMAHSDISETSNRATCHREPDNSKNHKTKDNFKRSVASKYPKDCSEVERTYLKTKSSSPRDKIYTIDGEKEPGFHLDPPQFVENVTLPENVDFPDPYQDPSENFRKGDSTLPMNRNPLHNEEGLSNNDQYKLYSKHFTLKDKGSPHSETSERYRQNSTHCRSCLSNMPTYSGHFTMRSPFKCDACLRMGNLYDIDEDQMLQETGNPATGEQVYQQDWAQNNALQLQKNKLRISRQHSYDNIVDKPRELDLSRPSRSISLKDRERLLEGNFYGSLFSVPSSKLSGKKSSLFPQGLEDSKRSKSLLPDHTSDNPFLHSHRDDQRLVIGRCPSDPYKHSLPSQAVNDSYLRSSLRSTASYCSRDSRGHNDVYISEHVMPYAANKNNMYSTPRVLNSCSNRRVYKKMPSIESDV
Method: Mature female Xenopus laevis were anaesthetized in 0.2% Tricaine on ice for 15 min prior to surgery. Oocytes were removed and incubated in 2 mg/ml collagenase (type II) in Ca^2+-free oocyte Ringer solution (82.5 mM NaCl, 2 mM KCl, 2 mM MgCl2, 5 mM HEPES, pH 7.5) for 30 min. at room temperature and washed thoroughly with OR-2 (100 mM NaCl, 2 mM KCl, 1 mM MgCl2, 2 mM CaCl2, 5 mM HEPES, pH 7.5). The remaining follicle cell layer was removed manually with fine forceps and the oocytes were kept in OR-2. The RNA was dissolved in DEPC-treated, sterile distilled water. RNA for the NMDA NR1a subunit was mixed 1:1 with RNA for the NR2A subunit. Likewise neuronal nicotinic α4 RNA was mixed 1:1 with RNA for the β2 subunit. […]
Only results from stable cells were accepted for inclusion in the final analysis i.e. showing at least 50% recovery of responses to NMDA following removal of the antagonist tested. […] All antagonists were assessed at steady-state blockade with 6 to 7 concentrations on at least 4 cells. […]
Kinetic experiments were performed by applying various concentrations of unsaturated amino-alkyl-cyclohexanes (normally 5 in a log 3 dosing regime) for 10-20 seconds in the continuous presence of glutamate (100 μM and glycine 10 μM) for 90-180 seconds in Xenopus oocytes expressing NR1a/2A receptors. […] Voltage-dependency was then determined by comparing the glutamate and glutamate plus antagonist curves. […]

[1] = test system: maximal electroshock (MES) tonic convulsions; assay: Maximal electroshock (MES) test, anticonvulsive activity; assay type: in vivo, mice; settings: Mus musculus, ip; NMR female mice, i.p. 30 min before convulsions; read-out: MES ED50
Method: (§1) NMR female mice (18-28 g) housed 5 per cage were used for the maximal electroshock (MES) and motor impairment tests. All animals were kept with water and food ad libitum under a 12 hour light-dark cycle (light on at 6 a.m.) and at a controlled temperature (20±0.5C). All experiments were performed between 10 a.m. and 5 p.m. Tested agents were injected 30 min. i.p. before the induction of convulsions if not stated otherwise (see below). All compounds were dissolved in 0.9% saline.
(§2) The MES test was performed together with tests for myorelaxant action (traction reflex) and motor coordination (rotarod). For the traction reflex test mice were placed with their forepaws on a horizontal rod and were required to place all 4 paws on the wire within 10 seconds. To test ataxia (motor coordination) mice were placed on an accelerating rotarod and were required to remain on the rod for 1 minute. […] These tests were followed by MES (100 Hz, 0.5 second shock duration, 50 mA shock intensity, 0.9 ms impulse duration, Ugo Basile) applied through corneal electrodes. The presence of tonic convulsions was scored (tonic extension of hind paws with minimum angle to the body of 90). The aim was to obtain ED50s for all parameters scored (anticonvulsive activity and motor side effects) with use of the Litchfield Wilcoxon test for quantal dose responses. Division of the ED50 for side effects (ataxia or myorelaxation) by the ED50 for antagonism of electroshock convulsions was used as a therapeutic index (TI).
(§3) 4-7 doses of antagonists were tested in each of the in vivo tests (5-8 animals per dose) to allow calculation of graded ED50s according to probit analysis (Litchfield and Wilcoxon) with correction for 0% to 100% effects. ED50s are presented with 95% confidence limits (Cl). Pearson product moment correlation analysis (Sigma Stat, Jandel Scientific) was used to compare in vitro potencies and in vivo anticonvulsant activity.

[2] = Traction reflex test, myorelaxant action; assay type: in vivo, mice; settings: mouse, in vivo, ip; NMR female mice, i.p., traction reflex; read-out: Myorelaxation ED50
Method: as §1, §2, §3

[3] = test system: myorelaxation (traction reflex); assay: Traction reflex test, myorelaxant action; assay type: in vivo, mice; settings: ED50 myorelaxation divided by ED50 MES
Method: as §1, §2, §3

[4] = Accelerating rotarod test, ataxia (motor coordination); assay type: in vivo, mice; settings: mouse, in vivo, ip; NMR female mice, accelerating rotarod
Method: as §1, §2, §3

ataxia (rotarod) = assay: as above; assay type: in vivo, mice; settings: ED50 ataxia divided by ED50 MES
Method: as §1, §2, §3

[5] = target: NMDA receptor ([3H]-(+)-MK-801 site) (Rattus norvegicus, UniProt P35439); assay: [3H]-(+)-MK-801 receptor binding, rat cortex membranes

IC50 (NMDA receptors; Table 1, mean, N=6, read-out: NMDA IC50): 3280 nM
use- and voltage-dependency of blockade (NMDA receptors; hippocampal neurones, NMDA-induced currents): clear use- and voltage-dependency
Steady-state inward current responses to NMDA (NMDA receptors; hippocampal neurones, NMDA 200 μM with glycine 1 μM at -70 mV): antagonized
IC50 (NR1a/2A receptors; glutamate 100 μM, glycine 10 μM, -70 mV): 1990 nM
Hill (NR1a/2A receptors; logistic fit of the concentration-blockade curve): 0.75
ED50 at 30 min [2]: 12.8 mg/kg
Ki [5]: 1180 nM
SMILES: C=CC1(N)CC(C)(C)CC(C)(C)C1 [MRZ 2/759, 1-Ethenyl-3,3,5,5-tetramethylcyclohexylamine]
ED50 [1]: 14.8 mg/kg
Therapeutic index (myorelaxation ED50 / MES ED50) [3]: 0.9
ED50 at 30 min [4]: 15 mg/kg
Therapeutic index (ataxia ED50 / MES ED50) (ataxia (rotarod)): 1.0
